{"source": "paper PMC6658782", "about": "“The Novel Arylamidine T-2307 Selectively Disrupts Yeast Mitochondrial Function by Inhibiting Respiratory Chain Complexes” (Antimicrobial Agents and Chemotherapy, 2019)", "key": {"whole yeast cells": {"test_system": "whole yeast cells", "assay": "Oxygen consumption of whole yeast cells (oxygen electrode)", "format": "cell-based, Saccharomyces cerevisiae"}, "[1]": {"molecular_target": "respiratory chain complex I (Bos taurus, UniProt P03887+P17694+P42026)", "assay": "MitoCheck complex I activity assay, bovine heart mitochondria", "format": "biochemical", "description": "The enzymatic activities of bovine heart mitochondrial respiratory chain complexes were determined using MitoCheck complex I, complex II/III, and complex IV activity assay kits (Cayman Chemical, Ann Arbor, MI, USA). Bovine heart mitochondria from these kits were used for experiments. The experiments were performed following the manufacturer’s instructions. In the experiments, 2 μM rotenone, 1 mM KCN, and both 1 mM TTFA and 5 μg/ml antimycin A served as positive controls for the inhibition of complex I, complex IV, and complexes II plus III, respectively.\nIn all experiments, the reaction rate of each enzyme was determined by calculating the slope of the linear portion of the curve. Complex I activity in C. albicans was calculated by subtracting the rotenone-insensitive enzymatic activity (with 10 μM rotenone) from the NADH dehydrogenase activity (without rotenone).\nOCRs in isolated mitochondria and intracellular ATP levels were compared between the control and treatment groups using the parametric Dunnett’s multiple-comparison test. P values of <0.05 (comparison of multiple groups) were considered statistically significant. IC50 values were determined from dose-response curves compared with untreated control samples using a four-parameter logistic curve-fitting analysis. Data were analyzed using JMP 13.0 (SAS Institute Japan Ltd., Tokyo, Japan)."}, "[2]": {"molecular_target": "respiratory chain complex IV (Bos taurus, UniProt P00396+P00415+P68530)", "assay": "MitoCheck complex IV activity assay, bovine heart mitochondria", "format": "biochemical"}, "[3]": {"molecular_target": "respiratory chain complex IV (Candida albicans, UniProt P0C8K9+Q9B1P9+Q9B8D8)", "sequence (P0C8K9 whole entry)": "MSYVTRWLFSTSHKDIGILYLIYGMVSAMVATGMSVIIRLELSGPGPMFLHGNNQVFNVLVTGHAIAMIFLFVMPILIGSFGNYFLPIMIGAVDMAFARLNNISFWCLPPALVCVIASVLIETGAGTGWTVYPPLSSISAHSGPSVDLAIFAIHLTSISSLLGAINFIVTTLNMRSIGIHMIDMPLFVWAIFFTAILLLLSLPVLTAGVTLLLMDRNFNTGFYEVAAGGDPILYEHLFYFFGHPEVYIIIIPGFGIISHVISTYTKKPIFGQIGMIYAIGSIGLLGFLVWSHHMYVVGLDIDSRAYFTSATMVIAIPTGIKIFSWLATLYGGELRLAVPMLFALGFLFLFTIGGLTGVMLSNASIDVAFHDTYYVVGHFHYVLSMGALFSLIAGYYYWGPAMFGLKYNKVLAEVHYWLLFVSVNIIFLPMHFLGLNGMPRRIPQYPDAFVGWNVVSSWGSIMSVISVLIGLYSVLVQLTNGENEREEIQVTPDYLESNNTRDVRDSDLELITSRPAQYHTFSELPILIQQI", "sequence (Q9B8D8 whole entry)": "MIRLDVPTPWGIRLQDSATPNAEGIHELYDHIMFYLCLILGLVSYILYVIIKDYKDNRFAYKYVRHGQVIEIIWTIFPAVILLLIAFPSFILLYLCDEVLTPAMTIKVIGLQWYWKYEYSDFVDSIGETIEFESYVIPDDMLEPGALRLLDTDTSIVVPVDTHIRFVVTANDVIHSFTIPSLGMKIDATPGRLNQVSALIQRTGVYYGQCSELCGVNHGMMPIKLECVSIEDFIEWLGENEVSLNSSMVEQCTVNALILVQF", "sequence (Q9B1P9 whole entry)": "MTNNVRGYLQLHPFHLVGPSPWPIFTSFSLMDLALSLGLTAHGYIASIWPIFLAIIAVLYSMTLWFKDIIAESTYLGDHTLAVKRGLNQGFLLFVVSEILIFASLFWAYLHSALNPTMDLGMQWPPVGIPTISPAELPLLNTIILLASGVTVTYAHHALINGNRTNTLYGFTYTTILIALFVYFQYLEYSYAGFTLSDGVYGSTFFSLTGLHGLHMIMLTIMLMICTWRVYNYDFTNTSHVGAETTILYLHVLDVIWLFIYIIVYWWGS", "assay": "Respiratory chain enzymatic activity, complex IV, C. albicans", "format": "biochemical", "details": "C. albicans mitochondria; read-out: IC50 ± SD, Complex IV"}, "[4]": {"molecular_target": "respiratory chain complex II + III (Bos taurus, UniProt P00125+P00157+P13272)", "assay": "MitoCheck complex II/III activity assay, bovine heart mitochondria", "format": "biochemical"}, "C. albicans": {"test_system": "C. albicans", "details": "cited from earlier work"}, "[5]": {"molecular_target": "respiratory chain complex IV (Saccharomyces cerevisiae, UniProt P00401+P00410+P00420)", "assay": "Respiratory chain enzymatic activity, complex IV, S. cerevisiae", "format": "biochemical"}, "[6]": {"molecular_target": "respiratory chain complex II + III (Saccharomyces cerevisiae, UniProt P00163+P07143+P08067)", "assay": "Respiratory chain enzymatic activity, complexes II plus III, S. cerevisiae", "format": "biochemical"}, "[7]": {"molecular_target": "respiratory chain complex II (Saccharomyces cerevisiae, UniProt P21801+P33421+P37298+Q00711)", "sequence (P21801 21-266)": "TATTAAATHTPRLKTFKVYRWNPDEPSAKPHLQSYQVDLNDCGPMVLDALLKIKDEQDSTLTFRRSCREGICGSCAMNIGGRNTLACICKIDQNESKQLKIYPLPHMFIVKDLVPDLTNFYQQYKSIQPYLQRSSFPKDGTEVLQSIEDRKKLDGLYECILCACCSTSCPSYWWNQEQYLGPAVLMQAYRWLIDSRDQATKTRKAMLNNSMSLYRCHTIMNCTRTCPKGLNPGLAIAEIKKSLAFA", "sequence (P33421 51-198)": "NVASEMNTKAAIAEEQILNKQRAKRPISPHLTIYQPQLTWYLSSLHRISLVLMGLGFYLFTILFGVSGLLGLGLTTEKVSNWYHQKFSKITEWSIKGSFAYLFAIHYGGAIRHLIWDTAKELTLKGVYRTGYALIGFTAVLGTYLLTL", "sequence (P37298 32-181)": "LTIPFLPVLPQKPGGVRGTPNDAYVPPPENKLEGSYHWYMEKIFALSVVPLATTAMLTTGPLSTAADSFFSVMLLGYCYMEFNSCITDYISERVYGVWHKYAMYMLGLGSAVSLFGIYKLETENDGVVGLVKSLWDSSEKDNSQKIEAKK", "sequence (Q00711 29-640)": "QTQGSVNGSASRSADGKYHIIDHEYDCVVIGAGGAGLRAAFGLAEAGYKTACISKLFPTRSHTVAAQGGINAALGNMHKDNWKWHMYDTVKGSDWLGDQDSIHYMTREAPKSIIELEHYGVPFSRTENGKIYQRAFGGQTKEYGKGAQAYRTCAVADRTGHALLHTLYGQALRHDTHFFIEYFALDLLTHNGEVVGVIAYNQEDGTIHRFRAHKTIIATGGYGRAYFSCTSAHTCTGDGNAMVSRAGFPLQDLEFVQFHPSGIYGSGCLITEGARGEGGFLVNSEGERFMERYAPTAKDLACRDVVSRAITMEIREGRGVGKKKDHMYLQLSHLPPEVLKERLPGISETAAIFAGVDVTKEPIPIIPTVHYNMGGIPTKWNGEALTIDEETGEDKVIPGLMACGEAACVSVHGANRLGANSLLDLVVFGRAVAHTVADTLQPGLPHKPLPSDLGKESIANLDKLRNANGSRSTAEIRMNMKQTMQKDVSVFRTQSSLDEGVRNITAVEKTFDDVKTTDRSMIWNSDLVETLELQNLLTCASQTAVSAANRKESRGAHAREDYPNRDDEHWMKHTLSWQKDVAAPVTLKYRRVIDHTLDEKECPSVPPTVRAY", "assay": "Respiratory chain enzymatic activity, complex II, S. cerevisiae", "format": "biochemical"}, "Saccharomyces cerevisiae": {"test_system": "Saccharomyces cerevisiae", "assay": "MIC determination, broth microdilution in semisynthetic medium", "format": "cell-based", "description": "MIC was determined using the broth microdilution method based on the Clinical and Laboratory Standards Institute method with the following minor modifications ([38]). The medium used for MIC determination was semisynthetic medium, which was used for the measurement of intracellular ATP levels as described above. […]."}, "NADH dehydrogenase": {"molecular_target": "NADH dehydrogenase", "assay": "NADH dehydrogenase activity, C. albicans", "format": "biochemical, Candida albicans", "details": "C. albicans mitochondria; involves complex I activity; read-out: IC50 against NADH dehydrogenase activity"}, "[8]": {"molecular_target": "respiratory chain complex I (Candida albicans, UniProt Q9B8D6)", "assay": "Respiratory chain enzymatic activity, complex I (rotenone-sensitive), C. albicans", "format": "biochemical", "details": "read-out: IC50 ± SD, Complex I"}}, "note": "Several values for one entry are separate records, joined by “and”; a condition that tells them apart may be missing. Equal entries are not always repeated.", "data": [{"smiles": "N=C(N)c1ccc(OCCCC2CCN(CCCOc3ccc(C(=N)N)cc3)CC2)cc1", "note": "[T-2307]", "values": [{"measurement": "effect on oxygen consumption in whole yeast cells", "setting": "whole yeast cells", "result": "dose-dependent inhibition of respiration"}, {"measurement": "IC50", "setting": "[1]; bovine heart mitochondria, read-out: IC50 ± SD, Complex I", "result": "> 3000", "unit": "µM"}, {"measurement": "remaining activity at 3000 µM", "setting": "[1]; bovine, read-out: remaining enzymatic activity of complex I", "result": 68, "unit": "%"}, {"measurement": "IC50 for complex IV in bovine heart mitochondria relative to yeast mitochondria", "setting": "[2]", "result": "> 10", "unit": "fold"}, {"measurement": "IC50", "setting": "[2]; bovine heart mitochondria, read-out: IC50 ± SD, Complex IV", "result": "> 3000", "unit": "µM"}, {"measurement": "remaining activity at 3000 µM", "setting": "[2]; read-out: remaining enzymatic activity of complex IV", "result": 92, "unit": "%"}, {"measurement": "IC50", "setting": "[3]", "result": "225 ± 23", "unit": "µM"}, {"measurement": "IC50 for complexes II plus III in bovine heart mitochondria relative to yeast mitochondria", "setting": "[4]", "result": "> 10", "unit": "fold"}, {"measurement": "IC50", "setting": "[4]; bovine heart mitochondria, read-out: IC50 ± SD, Complex II + III", "result": "> 3000", "unit": "µM"}, {"measurement": "remaining activity at 3000 µM", "setting": "[4]; read-out: remaining enzymatic activity of complexes II plus III", "result": 93, "unit": "%"}, {"measurement": "MIC reported previously", "setting": "C. albicans", "result": 4, "unit": "nM"}, {"measurement": "IC50", "setting": "[5]", "result": "149 ± 23", "unit": "µM"}, {"measurement": "IC50", "setting": "[6]", "result": "271 ± 37", "unit": "µM"}, {"measurement": "IC50", "setting": "[7]", "result": "755 ± 73", "unit": "µM"}, {"measurement": "MIC", "setting": "Saccharomyces cerevisiae; 72 h", "result": "0.0068 µg/mL and 0.0156 µM"}, {"measurement": "inhibition at 0.125 µM", "setting": "Saccharomyces cerevisiae; read-out: growth inhibition", "result": "> 75", "unit": "%"}, {"measurement": "IC50", "setting": "NADH dehydrogenase", "result": 2000, "unit": "µM"}, {"measurement": "IC50", "setting": "[8]", "result": "344 ± 32", "unit": "µM"}]}]}
